Data published in US20160242416A1, “FUNGICIDAL ISOXAZOLINE CARBINOLS” (E I DU PONT DE NEMOURS AND COMPANY, priority 2015, published 2016).

Columns and labels:
[1] = test system: Puccinia recondita f sp. tritici; experiment: Test F: wheat leaf rust, preventive spray on wheat seedlings; conditions: 100 = 100% disease control; for Test F rating (% disease control): 10 ppm, wheat leaf rust, 0 = no control
Stagonospora nodorum = experiment: Test D: wheat glume blotch, preventive spray on wheat seedlings; conditions: 100 = 100% disease control; for Test D rating (% disease control): 10 ppm, wheat glume blotch, 0 = no control
Source text: (§1) General protocol for preparing test solutions for Tests A-G: the test compounds were first dissolved in acetone in an amount equal to 3% of the final volume and then suspended at the desired concentration (in ppm) in acetone and purified water (50/50 mix by volume) containing 250 ppm of the surfactant PEG400 (polyhydric alcohol esters). The resulting test suspensions were then used in Tests A-G. Compounds were sprayed at a concentration of 50 ppm (*) or 10 ppm to the point of run-off on the test plants, the equivalent of a rate of 200 g/ha or 40 g/ha, respectively.
The test solution was sprayed to the point of run-off on wheat seedlings. The following day the seedlings were inoculated with a spore suspension of Stagonospora nodorum (also known as Septoria nodorum; the causal agent of wheat glume blotch) and incubated in a saturated atmosphere at 20° C. for 48 h, and then moved to a growth chamber at 20° C. for 6 days, after which time visual disease ratings were made.
(§2) Compounds with an asterisks (*) were applied at a concentration of 50 ppm, otherwise test solutions were applied at 10 ppm.

Botrytis cinerea = experiment: Test B: gray mold, preventive spray on tomato seedlings; conditions: 100 = 100% disease control; for Test B rating (% disease control): 10 ppm, gray mold on tomato, 0 = no control
Source text: as §1
The test solution was sprayed to the point of run-off on tomato seedlings. The following day the seedlings were inoculated with a spore suspension of Botrytis cinerea (the causal agent of gray mold on many crops) and incubated in a saturated atmosphere at 20° C. for 48 h, and moved to a growth chamber at 27° C. for 2 days, after which time visual disease ratings were made.
as §2

[2] = test system: Erysiphe graminis f sp. tritici; experiment: Test G: wheat powdery mildew, preventive spray on wheat seedlings; conditions: 100 = 100% disease control; for Test G rating (% disease control): 10 ppm, wheat powdery mildew, 0 = no control
Zymoseptoria tritici = experiment: Test E: wheat leaf blotch, preventive spray on wheat seedlings; conditions: 100 = 100% disease control; for Test E rating (% disease control): 10 ppm, wheat leaf blotch, 0 = no control
[3] = 10 ppm test solution, 0 = no control relative to controls

Row | SMILES | Test F disease control rating [1, 3] [%] | Test D disease control rating (Stagonospora nodorum; [3]) [%] | Test B disease control rating (Botrytis cinerea; [3]) [%] | Test G disease control rating [2, 3] [%] | Test E disease control rating (Zymoseptoria tritici; [3]) [%] | Test F rating (% disease control) [1] [%] | Test D rating (% disease control) (Stagonospora nodorum) [%] | Test B rating (% disease control) (Botrytis cinerea) [%] | Test G rating (% disease control) [2] [%] | Test E rating (% disease control) (Zymoseptoria tritici) [%]
1 | CC(C)(C)CC(O)(Cn1cncn1)C1=NOC(Cc2ccc(C(F)(F)F)cc2)C1 (single isomer, unassigned) [Compound 227] | 100 | 73 | 0 | 100 | 29 |  |  |  |  | 
2 | OC(Cn1cncn1)(C1=NOC(c2ccc(Cl)cc2)C1)C12CC3CC(CC(C3)C1)C2 (single isomer, unassigned) [Compound 39] |  |  |  |  |  | 0 | 87 | 0 | 73 | 18
3 | OC(Cn1cncn1)(C1=NOC(c2ccc(Cl)cc2)C1)c1ccccc1Cl (single isomer, unassigned) [Compound 150] |  |  |  |  |  | 100 | 100 | 0 | 99 | 42
4 | OC(Cn1cncn1)(C1=NOC(Cc2ccccc2)C1)c1ccc(Cl)cc1 (single isomer, unassigned) [Compound 137] |  |  |  |  |  | 99 | 77 | 0 | 99 | 26
5 | OC(Cn1cncn1)(C1=NOC(c2ccc(Cl)cc2)C1)c1ccc(Br)cc1 (single isomer, unassigned) [Compound 181] |  |  |  |  |  | 45 | 0 | 0 | 69 | 0
6 | OC(Cn1cncn1)(C1=NOC(c2cccc(Oc3ccccc3)c2)C1)c1ccc(Cl)cc1 (single isomer, unassigned) [Compound 177] |  |  |  |  |  | 0 | 51 | 0 | 89 | 0
7 | OC(Cn1cncn1)(C1=NOC(c2ccc(Cl)cc2)C1)C1CCCCC1 (single isomer, unassigned) [Compound 196] |  |  |  |  |  | 100 | 99 | 0 | 100 | 12
8 | CC(C)(C)C(O)(Cn1cncn1)C1=NOC(CCc2ccc(Cl)cc2)C1 (single isomer, unassigned) [Compound 15] |  |  |  |  |  | 100 | 100 | 100 | 100 | 19
9 | CCC(C)(C)C(O)(Cn1cncn1)C1=NOC(COc2ccc(Br)cc2)C1 (single isomer, unassigned) [Compound 12] |  |  |  |  |  | 99 | 68 | 0 | 96 | 57
10 | CC(C)(C)C(O)(Cn1cncn1)C1=NOC(Cc2ccc(Cl)c(Cl)c2)C1 (single isomer, unassigned) [Compound 23] |  |  |  |  |  | 100 | 97 | 0 | 100 | 89
11 | OC(Cn1cncn1)(C1=NOC(COc2ccc(F)cc2)C1)c1ccc(Cl)cc1 (single isomer, unassigned) [Compound 163] |  |  |  |  |  | 99 | 0 | 0 | 86 | 0
12 | CCC(C)(C)C(O)(Cn1cncn1)C1=NOC(Cc2ccc(Cl)cc2)C1 (single isomer, unassigned) [Compound 17] |  |  |  |  |  | 100 | 98 | 51 | 100 | 7
13 | CS(=O)(=O)c1ccc(C2CC(C(O)(Cn3cncn3)c3ccc(Cl)cc3)=NO2)cc1 (single isomer, unassigned) [Compound 113] |  |  |  |  |  | 100 | 0 | 0 | 98 | 9
14 | OC(Cn1cncn1)(C1=NOC(c2ccc(Cl)cc2)C1)c1ccc(F)cc1 (single isomer, unassigned) [Compound 160] |  |  |  |  |  | 100 | 99 | 75 | 100 | 11
15 | CC(C)(C)C(O)(Cn1cncn1)C1=NOC(Cn2ccc(C(F)(F)F)n2)C1 (single isomer, unassigned) [Compound 48] |  |  |  |  |  | 99 | 94 | 0 | 99 | 0
16 | Cn1nc(C(F)(F)F)cc1OCC1CC(C(O)(Cn2cncn2)C(C)(C)C)=NO1 (single isomer, unassigned) [Compound 47] |  |  |  |  |  | 76 | 0 | 19 | 84 | 3
17 | CC(C)(C)C(O)(Cn1cncn1)C1=NOC(c2ccc(-n3cc(Br)cn3)cc2)C1 (single isomer, unassigned) [Compound 8] |  |  |  |  |  | 0 | 0 | 0 | 100 | 0
18 | CC(C)(C)C(O)(Cn1cncn1)C1=NOC(COc2ccc(F)cc2F)C1 (single isomer, unassigned) [Compound 21] |  |  |  |  |  | 100 | 100 | 9 | 99 | 0
19 | CC(C)(C)C(O)(Cn1cncn1)C1=NOC(COc2ncc(Cl)cn2)C1 (single isomer, unassigned) [Compound 100] |  |  |  |  |  | 79 | 77 | 0 | 92 | 0
20 | OC(Cn1cncn1)(C1=NOC(Cc2ccc(Br)cc2)C1)c1ccc(Cl)cc1 (single isomer, unassigned) [Compound 55] |  |  |  |  |  | 99 | 73 | 0 | 99 | 2
21 | OC(Cn1cncn1)(C1=NOC(c2ccc(Cl)cc2)C1)c1ccc(Cl)cc1Cl (single isomer, unassigned) [Compound 140] |  |  |  |  |  | 100 | 82 | 0 | 99 | 67
22 | CC(C)(C)CC1CC(C(O)(Cn2cncn2)c2ccc(Cl)cc2)=NO1 (single isomer, unassigned) [Compound 75] |  |  |  |  |  | 90 | 58 | 0 | 97 | 0
23 | CC(C)(C)C(O)(Cn1cncn1)C1=NOC(COc2ccc(C(F)(F)F)cc2)C1 (single isomer, unassigned) [Compound 81] |  |  |  |  |  | 100 | 100 | 57 | 100 | 95
24 | OC(Cn1cncn1)(C1=NOC(c2cccc(Oc3ccccc3)c2)C1)c1ccc(Cl)cc1 (single isomer, unassigned) [Compound 176] |  |  |  |  |  | 100 | 82 | 0 | 100 | 2
25 | CC(C)(C)C(O)(Cn1cncn1)C1=NOC(Cc2ccc(Cl)c(Cl)c2)C1 (single isomer, unassigned) [Compound 22] |  |  |  |  |  | 100 | 96 | 0 | 99 | 29
26 | OC(Cn1cncn1)(C1=NOC(c2ccc(Oc3ccccc3)cc2)C1)c1ccc(Cl)cc1 (single isomer, unassigned) [Compound 143] |  |  |  |  |  | 67 | 0 | 0 | 76 | 1
27 | CC(C)(C)C(O)(Cn1cncn1)C1=NOC(COc2ccc(Cl)nc2)C1 (single isomer, unassigned) [Compound 98] |  |  |  |  |  | 88 | 0 | 0 | 55 | 0
28 | OC(Cn1cncn1)(C1=NOC(c2ccc(-n3ccc(C(F)(F)F)n3)cc2)C1)c1ccc(Cl)cc1 (single isomer, unassigned) [Compound 149] |  |  |  |  |  | 36 | 0 | 0 | 76 | 38
